{"source": "paper PMC3242598", "about": "“Phase I study of BIBF 1120 with docetaxel and prednisone in metastatic chemo-naive hormone-refractory prostate cancer patients” (British Journal of Cancer, 2011)", "key": {"[1]": {"test_system": "patients with metastatic, chemo-naive, hormone-refractory prostate cancer (HRPC)", "test": "Dose escalation: dose-limiting toxicities and maximum tolerated dose", "type": "in vivo", "method": "On days 2–21 (21-day cycle), patients took an oral dose of BIBF 1120 twice daily. Patients were instructed to swallow BIBF 1120 with water at the same time every day to ensure a dose interval of ∼12 h. On day 2 of treatment cycles (TCs) 1 and 2, patients only took the morning dose of BIBF 1120, omitting the evening dose to allow PK evaluation. All patients were premedicated with oral corticosteroids (dexamethasone 8 mg per os or methylprednisolone 32 mg per os, at 12 h and 1 h before docetaxel infusion) and subsequently took 5 mg prednisone oral BID throughout the trial. On day 1 of each TC, patients received an IV infusion of 75 mg m^−2 docetaxel administered over 1 h.\nBased on prior clinical experience, the starting dose of BIBF 1120 in TC 1 was 100 mg BID; doses were escalated in 50 mg increments until the occurrence of a dose-limiting toxicity (DLT). Recognised DLTs included the occurrence of non-haematological related toxicity grade ⩾3 with the exception of alopecia, nail modifications, acute nausea or vomiting and isolated γ-glutamyl transpeptidase elevations. Alternatively, the occurrence of uncomplicated grade 4 neutropenia for >7 days, neutropenia grade ⩾3 associated with fever ⩾38.5 °C, or grade 4 thrombopenia or grade 3 thrombopenia associated with bleeding in […], was defined as a DLT. […]"}, "VEGFR": {"test_system": "VEGFR", "set-up": "method as in Hilberg et al, 2008", "details": "after a 1-h exposure; ref Hilberg et al, 2008; cited from earlier work"}, "[2]": {"set-up": "method as in Mross et al, 2010", "details": "monotherapy phase I; ref Mross et al, 2010; cited from earlier work"}, "[3]": {"test_system": "human prostate cancer xenografts", "set-up": "method as in Hilberg et al, 2008", "details": "human prostate cancer xenografts in athymic mice; ref Hilberg et al, 2008; cited from earlier work"}}}
{"smiles": "COC(=O)c1ccc2c(c1)NC(=O)/C2=C(\\Nc1ccc(N(C)C(=O)CN2CCN(C)CC2)cc1)c1ccccc1", "note": "[BIBF 1120]", "values": [{"measurement": "Maximum tolerated dose (MTD)", "setting": "[1]; continuous daily oral BIBF 1120 + docetaxel 75 mg m^−2 every 3 weeks + prednisone 5 mg BID", "value": 250, "unit": "mg BID"}, {"measurement": "DLTs at dose levels <250 mg BID", "setting": "[1]; in vivo", "value": "no patients experienced DLTs"}, {"measurement": "Duration of block of VEGFR activation", "setting": "VEGFR", "value": "> 32", "unit": "h"}, {"measurement": "t1/2", "setting": "[2]", "value": "~15", "unit": "h"}, {"measurement": "Antitumour activity in vivo", "setting": "[3]", "value": "potent antitumour activity"}]}
